Laboratory results: patent US8129547B2, “Anticoagulation of human blood ex vivo” (priority 2006, dated 2012)

Columns and labels:
Plasma-kallikrein = target: T1, Plasma-kallikrein (Homo sapiens, UniProt P03952); assay: Determination of Ki values, chromogenic substrate, Dixon evaluation: plasma-kallikrein; type: biochemical; details: 25° C., tris buffer pH 8.0, substrate Bz-Pro-Phe-Arg-pNA; read-out: Ki PK (plasma-kallikrein)
T1 construct: purchased Haemochrom Diagnostica GmbH (Essen, D)
Description: In a particularly preferred embodiment the compound according to Formula (I) inhibits not only the blood coagulation factor XA but also thrombin and/or plasma kallikrein. […] Here too the Ki value stands for the dissociation constant of the respective enzyme-inhibitor complex. The determination of the Ki values of the inhibitors vis-a-vis thrombin and plasma kallikrein is preferably carried out in a similar manner to the determination, described above, of the Ki values of the inhibitors vis-a-vis the coagulation factor Xa, but in this case CH3SO2-D-HHT-gly-arg-pNA (with HHT=hexahydrothyrosin, and pNA=para-nitroaniline; sold under the commercial name Pefachrome tPA) are used as substrates in the case of thrombin and bz-pro-phe-arg-pNA (with bz=[…], and pNA=para-nitroaniline; sold under the commercial name Chromozym PK) in the case of plasma-kallikrein.
(§1) The inhibitors used here are the commercially available exemplary inhibitors Pefabloc tPA/Xa (2,7-bis(4-amidinobenzylidene)-cyclopeptanone-(1), Pentapharm Ltd. Basel, Switzerland), CJ-FXa (benzylsulphonyl-D-arginyl-glycyl-4-amidinobenzylamide, Haemochrom GmbH, Essen, Germany) and CJ-PK (benzylsulphonyl-D-seryl-carbobenzoxylsyl-4-amidinobenzylamide, Haemochrom GmbH, Essen, Germany). Research samples were available of DX-9065a ((+)-(2S)-2-[4-[[3S)-1-acetimidoyl-3-pyrrodinyl]oxy]phenyl]-3-[7-amidino-2-naphthyl]propanic acid, Daiichi Pharmaceutical Company Ltd., Tokyo, Japan), and Otamixaban (2-(R)-(3-carbamimidoylbenyzyl)-3-(R)-[4-(1-oxypyridin-4-yl)benzoylamino]-butyric acid-methylester, Sanofi-Aventis GmbH, Frankfurt, Germany), both of which are undergoing clinical tests. In order to examine the inhibitory action of these exemplarily used inhibitors on the blood coagulation factors plasma-kallikrein, VIIa, Xa, XIa and XIIa, the Ki values of the respective enzyme-inhibitor complexes were determined.
(§2) The enzymes were produced by Haemochrom Diagnostica GmbH (Essen, D) and were dissolved in 0.154 mol/l NaCl. The substrates (Pentapharm AG, Basel, CH) were dissolved in H2O and the inhibitor was dissolved in the above-mentioned tris buffer. The following substrates were used for the individual enzymes:
(§3) 200 μl of inhibitor solution were mixed with 25 μl of substrate for the determination and the reaction was started by the addition of 50 μl of enzyme. After a reaction time of 3-5 mins. 25 μl of acetic acid (50%) were added and the extinction was measured at 405 nm with a microplate reader (iEMS Reader MF 12401, Labsystems, Helsinki, Finland). The evaluation was carried out graphically according to Dixon (Biochem. J., 55, 170, 1953).
(§4) The enzymes were produced by Haemochrom Diagnostica GmbH (Essen, D), and only thrombin was manufactured in our own laboratory according to Walsmann (Pharmazie 23, 401-402, 1968). All the enzymes were dissolved in 0.154 mol/l NaCl. The substrates (Pentapharm AG, Basel, CH) were dissolved in H2O and the inhibitor was dissolved in the above-mentioned tris buffer. The following substrates were used for the individual enzymes:
as §3, with “1401,” for “12401,”

Factor VIIa = target: T2, Factor VIIa (Homo sapiens, UniProt P08709); assay: Determination of Ki values, chromogenic substrate, Dixon evaluation: Factor VIIa; type: biochemical; details: 25° C., tris buffer pH 8.0, substrate CH3SO2-D-phe-Gly-Arg-pNA
T2 construct: purchased Haemochrom Diagnostica GmbH (Essen, D)
T2 sequence (P08709 213-466 limits assumed): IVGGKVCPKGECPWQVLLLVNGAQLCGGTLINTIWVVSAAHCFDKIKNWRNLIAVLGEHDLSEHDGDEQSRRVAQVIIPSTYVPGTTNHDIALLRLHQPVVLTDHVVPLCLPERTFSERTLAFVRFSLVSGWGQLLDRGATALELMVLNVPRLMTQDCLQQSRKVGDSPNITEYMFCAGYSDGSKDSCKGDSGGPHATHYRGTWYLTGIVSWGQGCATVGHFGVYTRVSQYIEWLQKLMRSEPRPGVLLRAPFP
T2 sequence (P08709 61-212 partner limits assumed): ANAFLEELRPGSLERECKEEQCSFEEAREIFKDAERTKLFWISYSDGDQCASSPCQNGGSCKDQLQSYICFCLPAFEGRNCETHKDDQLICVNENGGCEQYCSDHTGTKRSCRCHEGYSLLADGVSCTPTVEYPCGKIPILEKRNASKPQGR
Description: as §1, §2, §3, §4
as §3, with “1401,” for “12401,”

thrombin formation = assay: Inhibition of thrombin formation (prothrombin fragment F1+2) in hirudin-anticoagulated plasma after activation by kaolin; type: biochemical, human; details: 37° C.
Protocol: In this example thrombin formation was activated in plasma anticoagulated with hirudin by the addition of kaolin and the ability of the inhibitors to inhibit thrombin formation was examined.
Blood sampled from a patient was initially anticoagulated by means of the thrombin inhibitor hirudin. For this purpose 9 parts of blood were mixed with 1 part of hirudin solution (recombinant hirudin HBW 023, Hoechst, Frankfurt, 2000 E/ml of physiological NaCl solution), then centrifuged for 10 minutes at 1300 revolutions per minute (rpm). 900 μl of the plasma anticoagulated with hirudin, present in excess, were mixed in polypropylene tubes with 50 μl of inhibitor solution or 0.9% NaCl solution and 50 μl kaolin suspension (from APTT-Test from Roche Diagnostics, diluted 1:250 before use with physiological NaCl solution), and incubated at 37° C. with light shaking. In this case kaolin acts as a non-physiological surface which activates the blood coagulation thereby finally stimulating thrombin formation. At certain times the quantity of the thrombin formed was determined immunologically on the basis of the formation of the prothrombin fragment F1+2 (Enzygnost F1+2 micro, Dade Behring GmbH, Marburg). This determination is based on an enzyme immunoassay according to the sandwich principle. For this purpose aliquot volumes (600 μl) were anticoagulated at certain times with 0.1 M EDTA (40 μl) and kept at −20° C. To determine the concentration of the prothrombin fragment F1+2 50 μl of plasma (if necessary diluted with PBS, phosphate-buffered saline) were incubated with monoclonal antibodies against the human prothrombin fragment F1+2, which were fixed on a microtitre plate included in the test kit. After a washing stage with PBS, which was used to remove sample material not bound by the antibodies, antibodies conjugated with peroxidase were incubated against human prothrombin binding to the free F1+2 determinants. […] This was then determined photometrically at a wavelength of 492 nm. […]

Factor Xa = target: T3, Factor Xa (Homo sapiens, UniProt P00742); assay: Determination of Ki values, chromogenic substrate, Dixon evaluation: Factor Xa; type: biochemical; details: 25° C., tris buffer pH 8.0, substrate CH3OCO-D-Cha-Gly-Arg-pNA
T3 construct: purchased Haemochrom Diagnostica GmbH (Essen, D)
T3 sequence (P00742 235-488 limits assumed): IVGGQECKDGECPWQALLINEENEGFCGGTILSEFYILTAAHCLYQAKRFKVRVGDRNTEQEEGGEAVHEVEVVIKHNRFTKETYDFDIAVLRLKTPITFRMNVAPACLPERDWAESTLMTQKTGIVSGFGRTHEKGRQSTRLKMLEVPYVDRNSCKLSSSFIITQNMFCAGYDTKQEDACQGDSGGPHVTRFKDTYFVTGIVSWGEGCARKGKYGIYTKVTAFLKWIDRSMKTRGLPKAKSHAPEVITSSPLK
T3 sequence (P00742 41-179 partner limits assumed): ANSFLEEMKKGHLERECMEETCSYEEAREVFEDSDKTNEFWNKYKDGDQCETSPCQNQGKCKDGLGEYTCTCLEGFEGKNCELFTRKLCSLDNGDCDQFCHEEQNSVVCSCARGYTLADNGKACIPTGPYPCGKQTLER

T1 sequence (P03952 391-638 limits assumed): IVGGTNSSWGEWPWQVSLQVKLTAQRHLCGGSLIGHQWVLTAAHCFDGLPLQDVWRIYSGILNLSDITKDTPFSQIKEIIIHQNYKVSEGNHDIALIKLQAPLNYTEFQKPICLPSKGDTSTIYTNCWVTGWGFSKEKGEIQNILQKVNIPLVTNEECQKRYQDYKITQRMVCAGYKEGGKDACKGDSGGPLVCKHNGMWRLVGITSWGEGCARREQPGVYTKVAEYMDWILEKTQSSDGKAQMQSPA
T1 sequence (P03952 20-390 partner limits assumed): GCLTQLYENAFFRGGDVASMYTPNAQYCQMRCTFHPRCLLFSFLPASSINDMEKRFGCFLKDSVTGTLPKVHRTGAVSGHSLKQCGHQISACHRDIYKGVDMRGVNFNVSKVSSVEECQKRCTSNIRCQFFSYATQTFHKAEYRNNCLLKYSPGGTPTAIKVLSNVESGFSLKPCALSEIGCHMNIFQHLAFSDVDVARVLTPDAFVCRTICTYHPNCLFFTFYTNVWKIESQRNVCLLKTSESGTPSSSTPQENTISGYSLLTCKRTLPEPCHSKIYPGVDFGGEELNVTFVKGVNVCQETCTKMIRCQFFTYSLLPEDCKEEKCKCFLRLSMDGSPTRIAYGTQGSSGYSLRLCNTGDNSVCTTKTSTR

Row | SMILES | Ki (Plasma-kallikrein) [nM] | Ki (Factor VIIa) [nM] | suppression/blocking of thrombin formation after kaolin activation (thrombin formation; concentration not stated in the sentence (FIGS. 1-3, 6)) | suppression of thrombin formation after kaolin activation (thrombin formation; inhibitor 100 μM) | Ki (Factor Xa) [nM]
1 | COC(=O)[C@H](Cc1cccc(C(=N)N)c1)[C@@H](C)NC(=O)c1ccc(-c2cc[n+]([O-])cc2)cc1 (mixture of isomers) [Otamixaban, 2-(R)-(3-carbamimidoylbenyzyl)-3-(R)-[4-(1-oxypyridin-4-yl)benzoylamino]-butyric acid-methylester] | 26 | 19000 | particularly suitable for blocking thrombin formation |  | 
2 | N=C(N)c1ccc(C=C2CCCCC(=Cc3ccc(C(=N)N)cc3)C2=O)cc1 [Pefabloc tPA/Xa, 2,7-bis(4-amidinobenzylidene)-cycloheptanone-(1)] | 720 | 140000 |  | totally suppressing thrombin formation | 5.1
